In US5919668A, “Non-reducing saccharide and its production and use” (Kabushiki Kaisha Hayashibara Seibutsu Kagaku Kenkyujo, priority 1994, dated 1999):

Key:
[1] = biological target: T1, trehalose-releasing enzyme (Rhizobium sp. M-11, UniProt Q53238); type: biochemical, Rhizobium species M-11; settings: for Composition: trehalose formed / Composition: reducing saccharide formed: 20% substrate, 2 units/g, 40° C., pH7.0, 48 hours; for Composition: reducing saccharide formed: glucose, maltose, maltotriose, maltotetraose or maltopentaose respectively; for Composition: residual substrate: trehalose-releasing enzyme, 48 h, pH 7
T1 construct: M-11, about 58-68 kDa
T1 sequence (Q53238 1-596): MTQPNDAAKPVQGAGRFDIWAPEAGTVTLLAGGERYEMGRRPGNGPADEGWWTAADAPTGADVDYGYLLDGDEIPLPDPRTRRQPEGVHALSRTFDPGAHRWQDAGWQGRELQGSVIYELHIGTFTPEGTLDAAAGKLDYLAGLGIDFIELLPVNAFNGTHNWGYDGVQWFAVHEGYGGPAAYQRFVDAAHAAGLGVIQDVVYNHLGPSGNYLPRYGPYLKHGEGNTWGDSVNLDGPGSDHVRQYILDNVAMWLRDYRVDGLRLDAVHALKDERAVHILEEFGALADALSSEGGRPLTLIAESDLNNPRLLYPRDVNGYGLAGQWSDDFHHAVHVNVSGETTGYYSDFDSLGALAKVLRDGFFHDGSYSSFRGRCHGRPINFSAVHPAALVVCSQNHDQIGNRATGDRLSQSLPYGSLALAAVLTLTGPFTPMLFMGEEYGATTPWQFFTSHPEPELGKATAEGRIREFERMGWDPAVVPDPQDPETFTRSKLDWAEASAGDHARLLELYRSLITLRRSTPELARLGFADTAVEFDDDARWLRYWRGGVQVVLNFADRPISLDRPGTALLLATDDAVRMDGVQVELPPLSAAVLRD
Experimental: Alpha-glycosyl trehaloses as substrates were prepared in accordance with the method described in Japanese Patent Application No. 349,216/93. More particularly, 20% aqueous solutions of maltotriose, maltotetraose, maltopentaose, maltohexaose or maltoheptaose as reducing partial starch hydrolysate were added with 2 units/g substrate solid of a purified non-reducing saccharide-forming enzyme obtained by the method in […], reacted at 40° C. and pH7.0 for 48 hours, heated for inactivation, filtered, deionized, concentrated in conventional manner and applied to ion exchange column chromatography on a strongly-acidic cation exchange "XT-1016" in sodium form. The ion exchange resin was packed in 3 jacketed-stainless steel columns, inner diameter of 2.0 cm, length of 1 m, and the columns were cascaded, loaded with 5 v/v % reaction saccharide liquid against the resin and injected with 55° C. water at SV0.13 for fractionation while keeping the temperature inside the columns at 55° C., thus obtaining high-purity preparations of non-reducing saccharides with glucose polymerization degrees of 3 or higher.
20% Aqueous solutions of these five types of non-reducing saccharides or alpha-glycosyl trehaloses were prepared, added with 2 units/g substrate solid of the purified trehalose-releasing enzyme obtained in Experiment 15, reacted at 40° C. and pH7.0 for 48 hours, deionized and subjected to high-performance liquid chromatography on "WAKO BEADS WB-T-330" for analysis of reaction products. As control, maltotriose, maltotetraose, maltopentaose, maltohexaose and maltoheptaose were subjected to the purified trehalose-releasing enzyme similarly as above and then analyzed on high-performance liquid chromatography.

[2] = test system: mice; assay: Acute toxicity test, oral administration in mice; type: in vivo; settings: for Animal death at the possible highest dose: oral, mice; for LD50: mouse, in vivo, po
Experimental: Acute toxicity tests were conducted on the non-reducing saccharide preparations PI, PII, PIII, PIV and PV prepared in Experiment 4, where they were orally administered to 7 week-old dd mice. […] Thus the LD50 of these saccharides was at least 50 g/kg or higher.
An acute toxicity test was conducted on a high-purity trehalose preparation obtained by the method in Experiment 17, purity of 99.5%, where it was orally administered in mice. […] Thus its LD50 would be briefly 50 g/kg or higher.

Row | Compound | Composition: trehalose formed [1] [%] | Composition: reducing saccharide formed [1] [%] | Composition: residual substrate [1] [%] | Animal death at the possible highest dose [2] | LD50 [2]
1 | OC[C@H]1O[C@H](O[C@H]2O[C@H](CO)[C@@H](O[C@H]3O[C@H](CO)[C@@H](O[C@H]4O[C@H](CO)[C@@H](O[C@H]5O[C@H](CO)[C@@H](O)[C@H](O)[C@H]5O)[C@H](O)[C@H]4O)[C@H](O)[C@H]3O)[C@H](O)[C@H]2O)[C@H](O)[C@@H](O)[C@@H]1O [PIII, alpha-maltotriosyl trehalose] | 39.5 | 60.0 | 0.5 | no animal death was observed | 
2 | OC[C@H]1O[C@H](O[C@H]2O[C@H](CO)[C@@H](O[C@H]3O[C@H](CO)[C@@H](O[C@H]4O[C@H](CO)[C@@H](O)[C@H](O)[C@H]4O)[C@H](O)[C@H]3O)[C@H](O)[C@H]2O)[C@H](O)[C@@H](O)[C@@H]1O [PII, alpha-maltosyl trehalose] | 44.3 | 44.4 | 11.3 | no animal death was observed | 
3 | OC[C@H]1O[C@H](O[C@H]2O[C@H](CO)[C@@H](O[C@H]3O[C@H](CO)[C@@H](O[C@H]4O[C@H](CO)[C@@H](O[C@H]5O[C@H](CO)[C@@H](O[C@H]6O[C@H](CO)[C@@H](O[C@H]7O[C@H](CO)[C@@H](O)[C@H](O)[C@H]7O)[C@H](O)[C@H]6O)[C@H](O)[C@H]5O)[C@H](O)[C@H]4O)[C@H](O)[C@H]3O)[C@H](O)[C@H]2O)[C@H](O)[C@@H](O)[C@@H]1O [PV, alpha-maltopentaosyl trehalose] | 29.1 | 70.6 | 0.3 | no animal death was observed | at least 50 g/kg
4 | OC[C@H]1O[C@H](O[C@H]2O[C@H](CO)[C@@H](O[C@H]3O[C@H](CO)[C@@H](O[C@H]4O[C@H](CO)[C@@H](O[C@H]5O[C@H](CO)[C@@H](O[C@H]6O[C@H](CO)[C@@H](O)[C@H](O)[C@H]6O)[C@H](O)[C@H]5O)[C@H](O)[C@H]4O)[C@H](O)[C@H]3O)[C@H](O)[C@H]2O)[C@H](O)[C@@H](O)[C@@H]1O [PIV, alpha-maltotetraosyl trehalose] | 34.2 | 65.5 | 0.3 | no animal death was observed | at least 50 g/kg
5 | OC[C@H]1O[C@H](O[C@H]2O[C@H](CO)[C@@H](O[C@H]3O[C@H](CO)[C@@H](O)[C@H](O)[C@H]3O)[C@H](O)[C@H]2O)[C@H](O)[C@@H](O)[C@@H]1O [PI, alpha-glucosyl trehalose] | 17.5 | 6.5 | 76.0 | no animal death was observed | 
